pIC50: −log10 of the molar value.
Molecular target: T1, Adenosine receptor A1 (Rattus norvegicus, UniProt P25099)
T1 sequence (P25099 whole entry): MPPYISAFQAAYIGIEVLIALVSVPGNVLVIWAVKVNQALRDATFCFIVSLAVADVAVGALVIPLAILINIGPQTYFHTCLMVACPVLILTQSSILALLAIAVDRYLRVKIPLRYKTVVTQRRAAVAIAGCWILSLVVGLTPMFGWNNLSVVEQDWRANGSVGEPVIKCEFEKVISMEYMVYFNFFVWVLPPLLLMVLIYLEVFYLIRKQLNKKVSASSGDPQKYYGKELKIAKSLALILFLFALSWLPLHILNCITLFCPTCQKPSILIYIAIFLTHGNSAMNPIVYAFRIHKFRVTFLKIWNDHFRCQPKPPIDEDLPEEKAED
Assay: Displacement of [3H]DPCPX from rat brain adenosine A1 receptor

SMILES: O=C(O)CCCCCC#C/C=C/CCCCC#C/C=C/Br
- pIC50: 3.97

Reference: ChEMBL document CHEMBL1144129, “Isolation of xestosterol esters of brominated acetylenic fatty acids from the marine sponge xestospongia testudinaria” (J Nat Prod, 1999)
